Experimental findings from patent publication US20230066946A1, “1,5-DIPHENYLPYRAZOLYL-3-OXYALKYL ACIDS AND 1-PHENYL-5-THIENYLPYRAZOLYL-3-OXYALKYL ACIDS AND THE USE THEREOF FOR CONTROL OF UNWANTED PLANT GROWTH” (Bayer Aktiengesellschaft, priority 2019, published 2023) are described below.

One experiment has as its system MATIN. In words: Post-emergence herbicidal action against MATIN. It is filed as in vivo, Matricaria inodora. The following applies: 1280 g/ha, visual rating about 3 weeks after treatment. As to the method:
(§1) [table] Seeds of mono- and dicotyledonous weed plants are placed in plastic pots in sandy loam soil (twin sowing with one species each of mono- or dicotyledonous weed plants per pot), covered with soil and cultivated in a greenhouse under controlled growth conditions. 2 to 3 weeks after sowing, the test plants are treated at the one-leaf stage. The compounds of the invention, formulated in the form of wettable powders (WP) or as emulsion concentrates (EC), are applied to the green parts of the plants as aqueous suspension or emulsion with addition of 0.5% additive at a water application rate equivalent to 600 litres per hectare. After the test plants have been kept in the greenhouse under optimum growth conditions for about 3 weeks, the activity of the preparations is rated visually in comparison to untreated controls. For example, 100% activity=the plants have died, 0% activity=like control plants. Tables 5.1-5.16 below show the effects of selected compounds of the general formula (I) according to Tables 1 to 3 on various harmful plants at an application rate corresponding to 1280 or 320 g/ha, which have been obtained by the aforementioned experimental method.

For experiment [1], the system named is SETVI. In words: Post-emergence herbicidal action against SETVI. It is filed as in vivo, Setaria viridis. The settings on record: 1280 g/ha, post-emergence at one-leaf stage, rated visually after about 3 weeks vs untreated controls. As to the method: as §1
Experiment [2] relates to STEME. The experiment can be described thus: Pre-emergence herbicidal action against STEME. It counts as in vivo, Stellaria media. The following applies: 1280 g/ha, scored visually after about 3 weeks vs untreated controls. An excerpt:
(§2) Seeds of mono- and dicotyledonous weed plants are placed in plastic pots in sandy loam soil (doubly sown with one species each of mono- or dicotyledonous weed plants per pot) and covered with soil. The compounds of the invention, formulated in the form of wettable powders (WP) or as emulsion concentrates (EC), are then applied onto the surface of the covering soil as aqueous suspension or emulsion with addition of 0.5% additive at a water application rate equivalent to 600 litres per hectare. After the treatment, the pots are placed in a greenhouse and kept under good growth conditions for the trial plants. After about 3 weeks, the effect of the preparations is scored visually in comparison with untreated controls as percentages. For example, 100% activity=the plants have died, 0% activity=like control plants. [table] Tables 4.1-4.15 below show the effects of selected compounds of the general formula (I) according to Tables 1 to 3 on various harmful plants at an application rate corresponding to 1280 or 320 g/ha, which have been obtained by the aforementioned experimental method.

Experiment [3] deals with SETVI. In words: Pre-emergence herbicidal action against SETVI. It is filed as in vivo, Setaria viridis. The settings on record: 1280 g/ha, scored visually after about 3 weeks vs untreated controls.
Text: as §2

Experiment [4] has as its system AMARE. In words: Pre-emergence herbicidal action against AMARE. It counts as in vivo, Amaranthus retroflexus. The following applies: 1280 g/ha, scored visually after about 3 weeks vs untreated controls.
Text: as §2

The subject of experiment [5] is ECHCG. The experiment can be described thus: Pre-emergence herbicidal action against ECHCG. It is filed as in vivo, Echinochloa crus-galli. The following applies: scored visually after about 3 weeks vs untreated controls, 100% = plants have died, 0% = like control plants.
Text: as §2

Experiment [6] concerns AMARE. The experiment can be described thus: Post-emergence herbicidal action against AMARE. It counts as in vivo, Amaranthus retroflexus. The settings on record: 1280 g/ha, visual rating about 3 weeks after treatment. As to the method: as §1
The test system of experiment [7] is ECHCG. In words: Post-emergence herbicidal action against ECHCG. It counts as in vivo, Echinochloa crus-galli. The settings on record: 1280 g/ha, post-emergence at one-leaf stage, rated visually after about 3 weeks vs untreated controls. The procedure:
as §1

Experiment [8] has as its system STEME. The experiment can be described thus: Post-emergence herbicidal action against STEME. It is filed as in vivo, Stellaria media. The settings on record: 1280 g/ha, visual rating about 3 weeks after treatment. The procedure:
as §1

For `C=CCNC(=O)COc1nn(-c2c(F)cccc2F)c(-c2ccc(F)c(F)c2)c1Cl` [III-068], the “Post-emergence action against MATIN in %” value in the experiment with MATIN is listed as 90%. In addition, the “Post-emergence action against SETVI in %” value in the experiment on SETVI [1] turned out to be 90%. Further, the “Pre-emergence action against STEME in %” value in the experiment with STEME [2] came out at 90%. Also, the “Pre-emergence action against SETVI in %” value in the experiment with SETVI [3] worked out at 100%. Moreover, the “Pre-emergence action against AMARE in %” value in the experiment with AMARE [4] is on record as 90%. The “Pre-emergence action at 1280 g/ha against ECHCG in %” value with ECHCG [5] is 100%.

With `COC(=O)COc1nn(-c2ccc(F)cc2)c(-c2cccc(F)c2)c1Br` [I-107], in the experiment on AMARE [6], the “Post-emergence action against AMARE in %” value was 100%. For the same compound, in the experiment with MATIN, the “Post-emergence action against MATIN in %” value came to 100%. The “Post-emergence action against ECHCG in %” value in the experiment with ECHCG [7] turned out to be 90%. In addition, the “Post-emergence action against STEME in %” value with STEME [8] turned out to be 90%. In addition, the “Pre-emergence action against STEME in %” value with STEME [2] was found to be 100%. For the same compound, the “Pre-emergence action against SETVI in %” value in the experiment on SETVI [3] is listed as 90%. The “Pre-emergence action against AMARE in %” value in the experiment with AMARE [4] was determined as 90%. For the same compound, in the experiment on ECHCG [5], the “Pre-emergence action at 1280 g/ha against ECHCG in %” value was determined as 100%.

Turning to `CCOC(=O)CCNC(=O)COc1nn(-c2ccc(F)cc2)c(-c2cccc(F)c2)c1Br` [III-019], the “Post-emergence action against AMARE in %” value in the experiment on AMARE [6] amounted to 100%. The “Post-emergence action against MATIN in %” value in the experiment on MATIN came out at 90%. In addition, the “Post-emergence action against SETVI in %” value in the experiment with SETVI [1] was found to be 90%. In addition, in the experiment on ECHCG [7], the “Post-emergence action against ECHCG in %” value is on record as 90%. Also, the “Pre-emergence action against STEME in %” value with STEME [2] was 100%. The “Pre-emergence action against SETVI in %” value in the experiment on SETVI [3] is 100%. Further, the “Pre-emergence action against AMARE in %” value in the experiment on AMARE [4] was 90%.

Turning to `C=CCNC(=O)COc1nn(-c2ccccc2F)c(-c2ccc(F)c(F)c2)c1Cl` [III-067], the “Post-emergence action against MATIN in %” value in the experiment on MATIN is 90%. Besides, the “Post-emergence action against SETVI in %” value in the experiment with SETVI [1] came to 100%. Also, in the experiment with STEME [8], the “Post-emergence action against STEME in %” value came to 100%. In addition, the “Pre-emergence action against STEME in %” value in the experiment on STEME [2] turned out to be 90%. Besides, in the experiment on SETVI [3], the “Pre-emergence action against SETVI in %” value is recorded as 100%. Besides, the “Pre-emergence action against AMARE in %” value in the experiment on AMARE [4] was determined as 100%. Also, the “Pre-emergence action at 1280 g/ha against ECHCG in %” value in the experiment on ECHCG [5] worked out at 100%.

With `CCOC(=O)CCNC(=O)COc1nn(-c2cccc(F)c2)c(-c2ccccc2)c1Br` [III-033], the “Post-emergence action against AMARE in %” value with AMARE [6] was 90%. In the experiment with SETVI [1], the “Post-emergence action against SETVI in %” value was determined as 100%. The “Pre-emergence action against STEME in %” value in the experiment with STEME [2] came to 100%. In the experiment with SETVI [3], the “Pre-emergence action against SETVI in %” value is recorded as 100%. Besides, the “Pre-emergence action against AMARE in %” value with AMARE [4] turned out to be 90%. The “Pre-emergence action at 1280 g/ha against ECHCG in %” value in the experiment with ECHCG [5] is given as 90%.

For the compound `COC(=O)CCNC(=O)COc1nn(-c2ccc(F)cc2)c(-c2cccc(F)c2)c1Cl` [III-026], the “Post-emergence action against AMARE in %” value in the experiment with AMARE [6] is reported as 90%. Further, in the experiment on MATIN, the “Post-emergence action against MATIN in %” value is listed as 90%. In the experiment with SETVI [1], the “Post-emergence action against SETVI in %” value is listed as 100%. Moreover, the “Pre-emergence action against SETVI in %” value with SETVI [3] amounted to 90%. The “Pre-emergence action against AMARE in %” value with AMARE [4] stood at 90%.

For `C=CCNC(=O)COc1nn(-c2c(F)cccc2F)c(-c2ccc(F)c(F)c2)c1Br` [III-054], the “Post-emergence action against SETVI in %” value in the experiment with SETVI [1] is reported as 100%. Also, the “Pre-emergence action against SETVI in %” value in the experiment with SETVI [3] worked out at 90%. In addition, the “Pre-emergence action against AMARE in %” value in the experiment with AMARE [4] is recorded as 90%.

As for `CCOC(=O)COc1nn(-c2cc(F)c(F)cc2F)c(-c2ccccc2)c1Cl` [I-093], the “Post-emergence action against AMARE in %” value with AMARE [6] is 100%. The “Post-emergence action against MATIN in %” value in the experiment with MATIN was 100%. For the same compound, in the experiment on ECHCG [7], the “Post-emergence action against ECHCG in %” value is reported as 100%. The “Post-emergence action against STEME in %” value in the experiment with STEME [8] turned out to be 100%. In the experiment on STEME [2], the “Pre-emergence action against STEME in %” value is given as 100%. The “Pre-emergence action against SETVI in %” value in the experiment with SETVI [3] is reported as 100%. Moreover, in the experiment with AMARE [4], the “Pre-emergence action against AMARE in %” value worked out at 100%. Further, the “Pre-emergence action at 1280 g/ha against ECHCG in %” value in the experiment on ECHCG [5] is 100%.

Consider `O=C(COc1nn(-c2ccc(F)cc2)c(-c2cccc(F)c2)c1Br)OCc1cccc(F)c1` [I-123], for which, in the experiment on AMARE [6], the “Post-emergence action against AMARE in %” value was 90%. Besides, in the experiment with MATIN, the “Post-emergence action against MATIN in %” value came to 90%. In addition, the “Post-emergence action against ECHCG in %” value in the experiment on ECHCG [7] was 90%. Moreover, the “Pre-emergence action against STEME in %” value in the experiment on STEME [2] amounted to 100%. Besides, the “Pre-emergence action against SETVI in %” value in the experiment with SETVI [3] was 90%. Further, the “Pre-emergence action against AMARE in %” value in the experiment on AMARE [4] was 100%.
